Consider seven molecules from paper PMC4703101 (Chemical research in toxicology, 2015).

Where a name gives a salt, the structure may show the parent alone. Marks after values point to notes of the source that are not given here.

For series [1], the system named is Liver microsomal P450. In words: Liver microsomal P450 oxidation. The format is in vitro ADME. The note with it: Human liver microsome (H112); substrate 100 μM (AαC, PhIP, MeIQx), 10 μM (MROD).
For series [2], the system named is Flavin monooxygenase (FMO). In words: Microsomal flavin monooxygenase. Particulars: WT and LCN liver microsomes.
The target in the next series is Xanthine Dehydrogenase (Mus musculus, UniProt Q00519). The experiment in a line: Xanthine dehydrogenase assay, liver cytosol. The format is in vitro ADME. The note with it: WT and LCN liver cytosol.
Sequence of Xanthine Dehydrogenase (Q00519 whole entry): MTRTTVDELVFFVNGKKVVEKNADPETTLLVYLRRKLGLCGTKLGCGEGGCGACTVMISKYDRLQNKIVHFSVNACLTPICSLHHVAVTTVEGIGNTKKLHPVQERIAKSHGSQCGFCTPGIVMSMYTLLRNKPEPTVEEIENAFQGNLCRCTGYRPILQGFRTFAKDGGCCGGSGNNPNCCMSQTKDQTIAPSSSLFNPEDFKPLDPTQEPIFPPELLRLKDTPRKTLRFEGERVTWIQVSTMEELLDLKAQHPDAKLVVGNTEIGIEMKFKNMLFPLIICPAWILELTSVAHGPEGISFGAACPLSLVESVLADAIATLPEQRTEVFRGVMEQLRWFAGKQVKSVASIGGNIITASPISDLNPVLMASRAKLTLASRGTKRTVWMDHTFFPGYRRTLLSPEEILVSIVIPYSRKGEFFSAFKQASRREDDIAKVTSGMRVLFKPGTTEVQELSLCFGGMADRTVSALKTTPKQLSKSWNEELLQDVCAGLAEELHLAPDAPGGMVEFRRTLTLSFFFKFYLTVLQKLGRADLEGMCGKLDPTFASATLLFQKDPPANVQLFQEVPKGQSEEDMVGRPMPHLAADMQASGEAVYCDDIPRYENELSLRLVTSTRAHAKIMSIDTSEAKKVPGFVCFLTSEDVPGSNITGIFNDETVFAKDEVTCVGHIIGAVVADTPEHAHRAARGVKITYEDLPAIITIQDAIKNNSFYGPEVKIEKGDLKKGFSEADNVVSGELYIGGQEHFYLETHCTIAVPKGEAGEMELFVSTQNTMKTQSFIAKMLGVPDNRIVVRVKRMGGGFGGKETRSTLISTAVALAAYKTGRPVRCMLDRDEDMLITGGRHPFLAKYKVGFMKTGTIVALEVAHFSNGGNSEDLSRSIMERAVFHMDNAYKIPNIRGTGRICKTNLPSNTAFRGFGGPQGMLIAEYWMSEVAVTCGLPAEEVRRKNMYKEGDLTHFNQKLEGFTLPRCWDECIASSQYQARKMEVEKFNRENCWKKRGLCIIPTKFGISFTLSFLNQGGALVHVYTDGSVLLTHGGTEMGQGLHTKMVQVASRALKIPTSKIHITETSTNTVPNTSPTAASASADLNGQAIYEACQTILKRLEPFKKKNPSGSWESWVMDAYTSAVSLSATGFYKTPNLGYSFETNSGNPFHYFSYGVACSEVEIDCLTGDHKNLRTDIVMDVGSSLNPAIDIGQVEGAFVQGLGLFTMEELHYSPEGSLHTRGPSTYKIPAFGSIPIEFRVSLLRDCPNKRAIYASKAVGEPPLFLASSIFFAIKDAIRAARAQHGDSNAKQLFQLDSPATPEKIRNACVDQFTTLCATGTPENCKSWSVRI
Series [3] concerns Liver microsomal P450. In words: Liver microsomal P450 oxidation. The note with it: for P450 Oxidation: substrate 100 μM (AαC, PhIP, MeIQx), 10 μM (MROD), mean and SD, n ≥3, N.D. = not detected; for levels of metabolism, fold greater than AαC: 100 µM substrate. The format is in vitro ADME, mouse.
Series [4] can be described thus: Pharmacokinetics of plasma AαC and its metabolites after oral gavage of AαC. The format is in vivo, mice (C57BL/6 background; WT, LCN, IECN). The note with it: for AUC 0-24 h in plasma, fold greater in LCN mice than in WT mice / Cmax in plasma, fold greater in LCN mice than in WT mice / clearance rate, fold lower in LCN mice than in WT mice: for AαC also vs IECN; for CL/F / AUC(0-t) / Cmax / half-life / Tmax / AUC0-24h / t1/2 / AUC0-6h: plasma.

In the next series the test system is Aldehyde Oxidase. The experiment in a line: Aldehyde oxidase assay, liver cytosol. The note with it: WT and LCN liver cytosol.
In series [5] the test system is DNA. Particulars: liver, kidney, colon, and mammary gland of female Cyp1a2-null mice; cited from earlier work.
Series [6] relates to DNA. Particulars: cited from earlier work.
Another series relates to P450 1A2. The note with it: human hepatocytes in primary culture pretreated with furafylline; cited from earlier work.
[7] abbreviates: IECN mice, AαC 13.6 mg/kg oral gavage, mean ± S.D. n=5.
[8] abbreviates: LCN mice, AαC 1.36 mg/kg oral gavage, mean ± S.D. n=5.
Where [9] appears, read: LCN mice, AαC 13.6 mg/kg oral gavage, mean ± S.D. n=5.
[10] abbreviates: WT mice, AαC 1.36 mg/kg oral gavage, mean ± S.D. n=5.
Setting [11] is: WT mice, AαC 13.6 mg/kg oral gavage, mean ± S.D. n=5.

`Nc1ccc2c(n1)[nH]c1ccccc12` [AαC, 2-Amino-9H-pyrido[2,3-b]indole]: the “P450 Oxidation” value with Liver microsomal P450 [1] turned out to be 820 ± 60 pmol/min/mg protein; in the series on Liver microsomal P450 [3] (WT mouse liver microsomes) it was 103 ± 33 pmol/min/mg protein. Also, the “AαC metabolism, if present (limit of detection by HPLC-UV)” value (in series [2]; at Xanthine Dehydrogenase; in the series with Aldehyde Oxidase) was less than 50 pmol/min/mg protein throughout. For the same molecule, the “AUC 0-24 h in plasma, fold greater in LCN mice than in WT mice” value (“AUC 0-24 h in plasma, fold greater” below) in series [4] (AαC 13.6 mg/kg oral gavage) is recorded as “about 20 fold”. Besides, the “Cmax in plasma, fold greater in LCN mice than in WT mice” value in series [4] (AαC 13.6 mg/kg oral gavage) stood at 10 fold. In series [4] (AαC 13.6 mg/kg oral gavage), the “clearance rate, fold lower in LCN mice than in WT mice” value is recorded as 20 fold. Also, the apparent clearance CL/F in series [4] (setting [7]) was 5920 ± 1530 mL/h; in [4] (setting [8]), 884 ± 378^a ml/h; in [4] (setting [9]) it was 335 ± 146^b ml/h; in series [4] (setting [10]), 15300 ± 5690 mL/h; in series [4] (setting [11]) it was 6900 ± 1850 mL/h. The AUC(0-t) in [4] (male, C57BL/6, mouse, po, 1.36 mg/kg, AUC0-6h, LCN mice, AαC 1.36 mg/kg oral gavage, mean ± S.D. n=5) worked out at 45.2 ± 16.9 ng·h/mL; in series [4] (male, C57BL/6, mouse, po, 1.36 mg/kg, AUC0-6h, WT mice, AαC 1.36 mg/kg oral gavage, mean ± S.D. n=5), 2.5 ± 1.3 ng·h/mL; in series [4] (male, C57BL/6, mouse, po, 13.6 mg/kg, AUC0-24h, IECN mice, AαC 13.6 mg/kg oral gavage, mean ± S.D. n=5), 68.4 ± 18.2 ng·h/mL; in [4] (male, C57BL/6, mouse, po, 13.6 mg/kg, AUC0-24h, LCN mice, AαC 13.6 mg/kg oral gavage, mean ± S.D. n=5), 1360 ± 595 ng·h/mL; in series [4] (male, C57BL/6, mouse, po, 13.6 mg/kg, AUC0-24h, WT mice, AαC 13.6 mg/kg oral gavage, mean ± S.D. n=5) it was 57.6 ± 14.2 ng·h/mL. The Cmax stood at 21.8 ± 13.6 ng/mL in series [4] (male, C57BL/6, mouse, po, 1.36 mg/kg, Cmax, LCN mice, AαC 1.36 mg/kg oral gavage, mean ± S.D. n=5); 1.4 ± 0.9 ng/mL in [4] (male, C57BL/6, mouse, po, 1.36 mg/kg, Cmax, WT mice, AαC 1.36 mg/kg oral gavage, mean ± S.D. n=5); 25.1 ± 12.4 ng/mL in series [4] (male, C57BL/6, mouse, po, 13.6 mg/kg, Cmax, IECN mice, AαC 13.6 mg/kg oral gavage, mean ± S.D. n=5); 272 ± 85.9 ng/mL in [4] (male, C57BL/6, mouse, po, 13.6 mg/kg, Cmax, LCN mice, AαC 13.6 mg/kg oral gavage, mean ± S.D. n=5); 26.5 ± 8.6 ng/mL in series [4] (male, C57BL/6, mouse, po, 13.6 mg/kg, Cmax, WT mice, AαC 13.6 mg/kg oral gavage, mean ± S.D. n=5). Moreover, the half-life was 1.4 ± 0.5 h in [4] (male, C57BL/6, mouse, po, 1.36 mg/kg, t1/2, LCN mice, AαC 1.36 mg/kg oral gavage, mean ± S.D. n=5); 1.7 ± 0.9 h in series [4] (male, C57BL/6, mouse, po, 1.36 mg/kg, t1/2, WT mice, AαC 1.36 mg/kg oral gavage, mean ± S.D. n=5); 3.9 ± 2.2 h in [4] (male, C57BL/6, mouse, po, 13.6 mg/kg, t1/2, IECN mice, AαC 13.6 mg/kg oral gavage, mean ± S.D. n=5); 2.8 ± 0.3 h in [4] (male, C57BL/6, mouse, po, 13.6 mg/kg, t1/2, LCN mice, AαC 13.6 mg/kg oral gavage, mean ± S.D. n=5); 3 ± 2.4 h in series [4] (male, C57BL/6, mouse, po, 13.6 mg/kg, t1/2, WT mice, AαC 13.6 mg/kg oral gavage, mean ± S.D. n=5). In series [4] (male, C57BL/6, mouse, po, 13.6 mg/kg), the Tmax came out at 1 h.

Turning to `Nc1nc2[nH]c3ccccc3c2cc1OS(=O)(=O)O` [AαC-3-OSO3H, 2-amino-9H-pyrido[2,3-b]indol-3-yl sulfate], in series [4] (AαC 1.36 mg/kg oral gavage), the “Cmax, fold higher in LCN mice than in WT mice” value is approximately 2 fold. For the same molecule, the “AUC 0-24 h in plasma, fold greater” value in [4] (AαC 13.6 mg/kg oral gavage) is given as “about 1.6 fold”. Besides, in series [4] (setting [7]), the AUC0-24h turned out to be 5310 ± 1650 ng·h/mL, the CL/F is on record as 77.0 ± 20.3^c ml/h, the Cmax was 913 ± 248 ng/mL and the Tmax worked out at 1.8 ± 1.2 h. Moreover, the t1/2 in [4] (setting [7]) is 2.8 ± 0.2 h. Moreover, in series [4] (setting [8]), the AUC0-6h is 438 ± 118^a h*ng/ml, the CL/F was 76.0 ± 39.2^b ml/h, the Cmax is recorded as 177 ± 73.0^a ng/ml and the Tmax amounted to 1.0 ± 0 h. Further, the t1/2 in series [4] (setting [8]) was determined as 2.5 ± 1.7 h. Moreover, in series [4] (setting [9]), the AUC0-24h is 6140 ± 1330^b h*ng/ml, the apparent clearance CL/F was 64.3 ± 13.6^a ml/h, the Cmax was 586 ± 128 ng/mL and the Tmax turned out to be 3.5 ± 2.3 h. Moreover, in series [4] (setting [9]), the t1/2 is 3.1 ± 0.2 h. In series [4] (setting [10]), the AUC0-6h came to 165.6 ± 47.6 ng·h/mL, the CL/F amounted to 180 ± 140 mL/h, the maximum concentration (Cmax) was found to be 74.6 ± 31.5 ng/mL and the Tmax came to 1.0 ± 0 h. In addition, the t1/2 in [4] (setting [10]) came to 5.9 ± 6.1 h. Moreover, in series [4] (setting [11]), the AUC0-24h stood at 3700 ± 911 ng·h/mL, the CL/F turned out to be 107 ± 27.9 mL/h, the Cmax stood at 669 ± 251 ng/mL and the Tmax is listed as 1.8 ± 1.3 h. Besides, the t1/2 in [4] (setting [11]) turned out to be 3.4 ± 1.2 h.

Turning to `O=C(O)[C@H]1O[C@@H](Nc2ccc3c(n2)[nH]c2ccccc23)[C@H](O)[C@@H](O)[C@@H]1O` [AαC-N^2-Glu, N^2-(β-1-glucosidurony1)-2-amino-9H-pyrido[2,3-b]indole], the “Cmax and AUC0-24h, fold higher in LCN than in WT mice” value in series [4] (AαC 13.6 mg/kg by gavage, plasma (abstract)) was 4-24 fold. For the same molecule, in [4] (AαC 13.6 mg/kg oral gavage), the “AUC 0-24 h in plasma, fold greater” value was ~ 6 fold; the “Cmax in plasma, fold greater in LCN mice than in WT mice” value is listed as 4.5 fold; the “clearance rate, fold lower in LCN mice than in WT mice” value is given as 6.6 fold. Further, in series [4] (setting [7]), the AUC0-24h was determined as 150 ± 30.0 ng·h/mL, the CL/F came out at 3180 ± 1031 mL/h, the Cmax came to 42.4 ± 15.4 ng/mL and the time of peak concentration (Tmax) was determined as 1.8 ± 1.2 h. Moreover, the t1/2 in series [4] (setting [7]) turned out to be 2.5 ± 2.2 h. Besides, in [4] (setting [8]), the AUC0-6h is reported as 195 ±78.7^a h*ng/ml, the CL/F is 207 ± 100^a ml/h, the Cmax is reported as 74.3 ± 48.6^a ng/ml and the t1/2 is 1.5 ± 0.8 h. Moreover, in series [4] (setting [9]), the AUC0-24h was 803 ± 241^a h*ng/ml, the CL/F is recorded as 543 ± 148^a ml/h, the Cmax is 186 ± 85.0^b ng/ml and the Tmax turned out to be 1.0 ± 0 h. In [4] (setting [9]), the t1/2 stood at 2.1 ± 0.5 h. In addition, in [4] (setting [10]), the AUC0-6h was determined as 40.5 ± 16.6 ng·h/mL, the CL/F came to 985 ± 372 mL/h, the Cmax was found to be 19.2 ± 13.5 ng/mL and the t1/2 is 1.4 ± 0.7 h. Also, in [4] (setting [11]), the AUC0-24h was 128 ± 26.8 ng·h/mL, the CL/F came out at 3610 ± 566 mL/h, the Cmax turned out to be 40.2 ± 9.6 ng/mL and the Tmax worked out at 1.0 ± 0 h. For the same molecule, the t1/2 in [4] (setting [11]) is 1.5 ± 0.7 h.

Turning to `COc1ccc2nc3ccc(=O)cc-3oc2c1` [MROD, methoxyresorufin], in the series with Liver microsomal P450 [3], the “MROD activity, fold decrease in LCN liver microsomes compared to WT microsomes” value is given as “greater than 10 fold”.

For the molecule `Cc1cnc2ccc3c(nc(N)n3C)c2n1` [MeIQx, 2-amino-3,8-dimethylimidaz[4,5-f]quinoxaline], the “P450 Oxidation” value in the series on Liver microsomal P450 [1] came out at 1010 ± 155 pmol/min/mg protein; in the series with Liver microsomal P450 [3] (LCN mouse liver microsomes), 67 ± 44 pmol/min/mg protein; in the series with Liver microsomal P450 [3] (WT mouse liver microsomes), 404 ± 155 pmol/min/mg protein. The “levels of metabolism, fold greater than AαC” value in the series on Liver microsomal P450 [3] (WT mouse liver microsomes) is recorded as 3 to 4 fold.

On to `Cn1c(N)nc2ncc(-c3ccccc3)cc21` [PhIP, 2-amino-1-methyl-6-phenylimidazo[4,5-b]pyridine], for which the “P450 Oxidation” value with Liver microsomal P450 [1] turned out to be 1440 ± 280 pmol/min/mg protein. Moreover, in the series with Liver microsomal P450 [3] (WT mouse liver microsomes), the “levels of metabolism, fold greater than AαC” value lay within 3 to 4 fold and the “P450 Oxidation” value is listed as 362 ± 120 pmol/min/mg protein. Besides, the “levels of DNA adducts in Cyp1a2-null vs WT mice” value in the series with DNA [5] is recorded as “ten-fold lower”. Besides, the “PhIP-DNA adduct levels in liver of RCN compared to WT mice” value with DNA [6] was “unchanged”.

As for `Cc1nc2c([nH]1)c(=O)n(C)c(=O)n2Cc1ccco1` [furafylline], the “inhibition of dG-C8-AαC adduct formation” value with P450 1A2 is “only partially inhibited”.
